The values that follow come from PMC10341549, “Inhibitory Investigations of Acyl-CoA Derivatives against Human Lipoxygenase Isozymes” (International Journal of Molecular Sciences, 2023).

One experiment deals with T1, h15-LOX-2 (Homo sapiens, UniProt O15296).
T1 construct: His tag; made in house
T1 sequence (O15296 1-676): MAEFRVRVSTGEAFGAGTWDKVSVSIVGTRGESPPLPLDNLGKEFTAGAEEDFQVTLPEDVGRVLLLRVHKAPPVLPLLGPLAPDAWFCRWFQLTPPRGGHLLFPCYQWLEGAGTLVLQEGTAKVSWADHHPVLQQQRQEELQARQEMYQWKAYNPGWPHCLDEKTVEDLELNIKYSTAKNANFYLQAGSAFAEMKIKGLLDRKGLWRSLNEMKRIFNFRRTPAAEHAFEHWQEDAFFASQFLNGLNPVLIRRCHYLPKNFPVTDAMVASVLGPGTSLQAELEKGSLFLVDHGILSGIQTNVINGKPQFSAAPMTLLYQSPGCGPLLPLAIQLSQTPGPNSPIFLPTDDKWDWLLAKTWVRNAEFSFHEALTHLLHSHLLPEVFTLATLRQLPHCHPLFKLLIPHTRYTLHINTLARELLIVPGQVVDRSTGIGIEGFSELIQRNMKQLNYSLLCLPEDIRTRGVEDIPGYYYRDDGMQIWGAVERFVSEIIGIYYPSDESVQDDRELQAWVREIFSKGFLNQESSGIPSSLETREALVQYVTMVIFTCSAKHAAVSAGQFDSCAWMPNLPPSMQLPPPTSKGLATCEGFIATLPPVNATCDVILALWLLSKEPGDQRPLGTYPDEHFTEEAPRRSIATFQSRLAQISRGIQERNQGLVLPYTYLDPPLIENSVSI
Briefly: IC50 determination against h15-LOX-2. In kind it is biochemical. To be noted: 10 μM AA, 25 mM HEPES pH 7.5, 0.01% Triton X-100, 22 °C. As for the experimental part: Overexpression and purification of his-tagged wild-type h12-LOX (Uniprot entry P18054), h15-LOX-1 (Uniprot entry P16050), and h15-LOX-2 (Uniprot entry O15296) were performed using nickel-affinity chromatography. The purity of h12-LOX, h15-LOX-1, and h15-LOX-2 was assessed using SDS gel as greater than 85%, and metal content was assessed with a Finnigan inductively coupled plasma mass spectrometer (ICP-MS, Thermo Fischer Scientific, San Jose, USA) via comparison with iron standard solution. Cobalt-EDTA was used as an internal standard. WT h5-LOX (UniProt entry P09917) was expressed in Rosetta 2 cells (Novagen) transformed with the pET14b-Stable-5-LOX plasmid (a gift from Marcia Newcomer of Louisiana State University) and grown in Terrific Broth containing 34 μg/mL chloramphenicol and 100 μg/mL ampicillin at 37 °C for 3.5 h, then placed at 20 °C for an additional 26 h. Cells were pelleted and resuspended in 50 mM Tris (pH 8.0), 500 mM NaCl, 20 mM imidazole with 1 μM pepstatin, 100 μM PMSF, and DNaseI (Sigma, Kanagawa, Japan). The cells were lysed in a French pressure cell and centrifuged at 40,000× g for 20 min at 4 °C. Saturated ammonium sulfate was added to achieve a final solution of 10% and inverted several times. The lysate was centrifuged at 40,000× g for 10 min at 4 °C. The pellet was discarded, and the supernatant was increased to a final concentration of 50% ammonium sulfate. The supernatant was rotated for 10 min at 4 °C then centrifuged at 40,000× g for 10 min at 4 °C. The pellet was split into 150 mg aliquots. The WT h5-LOX used for the kinetics in this work was not purified due to a dramatic loss in activity and was therefore prepared as an ammonium-sulfate precipitate.
IC50 values for each acyl-CoA were measured against h5-LOX, h12-LOX, h15-LOX-1, and h15-LOX-2. The reactions were carried out in 25 mM HEPES buffer (pH 8.00), 0.01% Triton X-100, and 10 μM AA for h12-LOX; 25 mM HEPES buffer (pH 7.5), 0.01% Triton X-100, and 10 μM AA for h15-LOX-1 and h15-LOX-2; and 50 mM HEPES buffer (pH 7.5), 100 µM EDTA, 50 mM NaCl, 200 µM ATP, and 10 μM AA for h5-LOX. IC50 reactions were implemented with h15-LOX-1 (0.125 μM), h12-LOX (0.300 μM), h15-LOX-2 (0.5 μM), and h5-LOX (∼600 nM ammonium sulfate salt) at 22 °C in a 1 cm^2 quartz cuvette containing 2 mL of the according buffer and 10 μM AA for no longer than 2 min to avoid any cleavage of the acyl-coenzyme A. Inhibitor concentrations ranging from 50 μM to 0.01 μM were used. All reactions were conducted using a Cary-UV Vis spectrophotometer (Agilent, Santa Clara, CA, USA). The fastest rates over 15 s intervals were recorded. IC50 values were obtained by determining the percent of inhibition of the enzymatic rate at ten inhibitor concentrations and plotting the rate against the inhibitor concentration, followed by a hyperbolic saturation curve fit. The saturation curve fits were performed in duplicate or triplicate, depending on the quality of the data. […] Through HPLC monitoring, we were able to determine a lack of degradation of the fatty acyl-CoAs over the first hour.

A further experiment addresses T2, h12-LOX (Homo sapiens, UniProt P18054).
T2 construct: His tag; made in house
T2 sequence (P18054 1-663): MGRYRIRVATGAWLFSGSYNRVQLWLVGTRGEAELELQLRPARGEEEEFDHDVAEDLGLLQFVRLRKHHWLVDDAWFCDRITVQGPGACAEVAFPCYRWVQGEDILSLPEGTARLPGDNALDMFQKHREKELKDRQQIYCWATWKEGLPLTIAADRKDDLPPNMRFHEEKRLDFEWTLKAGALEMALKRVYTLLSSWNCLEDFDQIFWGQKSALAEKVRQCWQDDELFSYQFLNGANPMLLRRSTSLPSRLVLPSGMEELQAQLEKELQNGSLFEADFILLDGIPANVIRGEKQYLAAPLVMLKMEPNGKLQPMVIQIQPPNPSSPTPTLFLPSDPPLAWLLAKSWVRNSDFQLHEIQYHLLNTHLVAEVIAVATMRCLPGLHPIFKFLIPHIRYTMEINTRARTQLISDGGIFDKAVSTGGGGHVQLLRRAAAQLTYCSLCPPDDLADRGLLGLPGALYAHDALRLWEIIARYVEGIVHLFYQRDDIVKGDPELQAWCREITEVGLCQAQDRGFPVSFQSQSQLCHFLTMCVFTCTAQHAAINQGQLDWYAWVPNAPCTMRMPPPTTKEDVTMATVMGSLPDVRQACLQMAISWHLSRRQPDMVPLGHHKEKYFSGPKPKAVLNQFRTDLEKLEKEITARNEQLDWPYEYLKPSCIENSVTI
Also noted: method as in PMID 37506345. To be noted: 10 μM AA, 25 mM HEPES pH 8.00, 0.01% Triton X-100, 22 °C, published previously, ref [30], cited from earlier work.

[1] abbreviates: listed as palmitoleoyl-CoA (16:1).

Structures are written as SMILES. Read-outs that look alike come from different tables or passages of the source. Bounds are passed on as bounds.

Broadly, the IC50 is the concentration needed to halve the response being measured. For the molecule `CCCCC/C=C\C/C=C\C/C=C\C/C=C\CCCC(=O)SCCNC(=O)CCNC(=O)[C@H](O)C(C)(C)COP(=O)(O)OP(=O)(O)OC[C@H]1O[C@@H](n2cnc3c(N)ncnc32)[C@H](O)[C@@H]1OP(=O)(O)O` [Arachidonoyl-CoA (20:4), arachidonoyl-coenzyme A (20:4)], the IC50 is over 500 µM against h15-LOX-2, over 100 µM against h15-LOX-2 (listed as arachidonoyl-CoA (20:4)) and 110 ± 20 µM on h12-LOX.
As for `CC/C=C\C/C=C\C/C=C\C/C=C\C/C=C\C/C=C\CCC(=O)SCCNC(=O)CCNC(=O)C(O)C(C)(C)COP(=O)(O)OP(=O)(O)OC[C@H]1O[C@@H](n2cnc3c(N)ncnc32)[C@H](O)[C@@H]1OP(=O)(O)O` (stereo partly shown) [Docosahexaenoyl CoA (22:6), docosahexaenoyl-coenzyme A (22:6)], the half-inhibitory concentration (IC50) was over 500 µM against h15-LOX-2, over 500 µM at h12-LOX and over 200 µM at h12-LOX (listed as docosahexaenoyl-CoA (22:6)).
For the molecule `CCCCC/C=C\C/C=C\CCCCCCCC(=O)SCCNC(=O)CCNC(=O)[C@H](O)C(C)(C)COP(=O)(O)OP(=O)(O)OC[C@H]1O[C@@H](n2cnc3c(N)ncnc32)[C@H](O)[C@@H]1OP(=O)(O)O` [Linoleoyl-CoA (18:2), linoleoyl-CoA], the IC50 against h15-LOX-2 was over 100 µM; on h12-LOX, over 200 µM.
As to `CCCCCCCC/C=C\CCCCCCCC(=O)SCCNC(=O)CCNC(=O)[C@H](O)C(C)(C)COP(=O)(O)OP(=O)(O)OC[C@H]1O[C@@H](n2cnc3c(N)ncnc32)[C@H](O)[C@@H]1OP(=O)(O)O` [Oleoyl-CoA (18:1), oleoyl-coenzyme A (18:1)], the IC50 against h15-LOX-2 was 0.62 ± 0.06 µM; on h12-LOX it was 32 ± 4 µM.
Regarding `CCCCCC/C=C\CCCCCCCC(=O)SCCNC(=O)CCNC(=O)[C@H](O)C(C)(C)COP(=O)(O)OP(=O)(O)OC[C@H]1O[C@@H](n2cnc3c(N)ncnc32)[C@H](O)[C@@H]1OP(=O)(O)O` [Palmitoleoyl-CoA (16:1), palmitoleoyl-coenzyme A (16:1)], the IC50 on h15-LOX-2 was over 200 µM; against h15-LOX-2 (setting [1]), over 100 µM; on h12-LOX, over 500 µM; on h12-LOX (setting [1]), over 200 µM.
Regarding `CCCCCCCCCCCCCCCC(=O)SCCNC(=O)CCNC(=O)[C@H](O)C(C)(C)COP(=O)(O)OP(=O)(O)OC[C@H]1O[C@@H](n2cnc3c(N)ncnc32)[C@H](O)[C@@H]1OP(=O)(O)O` [Palmitoyl-CoA (16:0), palmitoyl-coenzyme A (16:0)], the 50% inhibitory concentration (IC50) was over 200 µM against h15-LOX-2, over 100 µM against h15-LOX-2 (listed as palmitoyl-CoA (16:0)) and over 200 µM at h12-LOX.
As to `CCCCCCCCCCCCCCCCCC(=O)SCCNC(=O)CCNC(=O)[C@H](O)C(C)(C)COP(=O)(O)OP(=O)(O)OC[C@H]1O[C@@H](n2cnc3c(N)ncnc32)[C@H](O)[C@@H]1OP(=O)(O)O` [Stearoyl-CoA (18:0), stearoyl-coenzyme A (18:0)], the IC50 was 7.6 ± 1 µM on h15-LOX-2 and over 200 µM on h12-LOX.
For the molecule `CCCCC/C=C\C/C=C\C/C=C\CCCCC(=O)SCCNC(=O)CCNC(=O)[C@H](O)C(C)(C)COP(=O)(O)OP(=O)(O)OC[C@H]1O[C@@H](n2cnc3c(N)ncnc32)[C@H](O)[C@@H]1OP(=O)(O)O` [ɣ-Linolenoyl-CoA (18:3), ɣ-linolenoyl-coenzyme A (18:3)], the results for the half-maximal inhibitory concentration (IC50) at h15-LOX-2, at h15-LOX-2 (listed as ɣ-linolenoyl-CoA (18:3)) and on h12-LOX were over 500 µM, over 100 µM and over 200 µM, respectively.
